# Patent publication US10640497B2, “Microbiocidal oxadiazole derivatives” (SYNGENTA PARTICIPATIONS AG, priority 2015, dated 2020)
# How the values were obtained:
# [1] = system: Glomerella lagenarium (Colletotrichum lagenarium); assay: Fungicidal activity against Glomerella lagenarium (Colletotrichum lagenarium), liquid culture, cucumber, preventative (anthracnose); format: cell-based; settings: Colletotrichum orbiculare, liquid culture (PDB), growth inhibition measured photometrically 3-4 days after application, compared to untreated control
# Outline: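 Glomerella lagenarium conidia in potato dextrose broth were exposed in 96-well plates to test compound diluted from DMSO stock with 0.025% Tween20 and incubated at 24 °C. Growth inhibition was read photometrically 3–4 days after application, as percent activity relative to untreated check.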
# [2] = system: Phakopsora pachyrhizi; assay: Fungicidal activity against Phakopsora pachyrhizi, soybean, leaf disc preventative (Asian soybean rust); format: in vivo; settings: foliar, 288 h, 12-14 days after application, compared to untreated control
# Outline: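 Soybean leaf discs on water agar were sprayed with compound diluted in water, then inoculated one day later with a spore suspension on the lower leaf surface. After 24-36 h dark at 20 °C, 75% rh, discs were held at 20 °C, 12 h light/day. Percent disease control versus untreated assessed 12-14 days post-application.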
# [3] = system: Puccinia recondita f. sp. tritici; assay: Fungicidal activity against Puccinia recondita f. sp. tritici, wheat, leaf disc curative (brown rust); format: in vivo; settings: foliar, 144 h, wheat leaf segments, curative (applied 1 day after inoculation), 6-8 days after application, compared to untreated control
# Outline: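 Wheat cv. Kanzler leaf segments on agar, inoculated with brown rust spores and kept dark at 19 °C, 75% rh; formulated compound sprayed 1 day after inoculation (curative). Incubated 19 °C, 75% rh, 12 h light/dark; percent disease control vs untreated scored 6–8 days after application.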
# [4] = system: Puccinia recondita f. sp. tritici; assay: Fungicidal activity against Puccinia recondita f. sp. tritici, wheat, leaf disc preventative (brown rust); format: in vivo; settings: foliar, wheat leaf segments, preventative (inoculated 1 day after application), 7-9 days after application, compared to untreated control
# Outline: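 Wheat cv. Kanzler leaf segments on water agar sprayed with compound (DMSO stock diluted in water), then inoculated with spore suspension 1 day later. Incubated at 19 °C, 75% rh, 12 h light/12 h dark; percent disease control versus untreated scored at 7-9 days after application.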
SMILES,melting point [°C],inhibition of growth at 20 ppm [1] [%],pest or weed control at 200 ppm [2] [%],pest or weed control at 200 ppm [3] [%],pest or weed control at 200 ppm [4] [%]
"CN(C)C(=O)N1CC(=O)N(Cc2ccc(-c3noc(C(F)(F)F)n3)cc2)C(=O)C1 [Compound A-56, N,N-dimethyl-3,5-dioxo-4-[[4-[5-(trifluoromethyl)-1,2,4-oxadiazol-3-yl]phenyl]methyl]piperazine-1-carboxamide]",138 to 141,≥ 80,≥ 80,≥ 80,≥ 80
"O=C1CCON1Cc1ccc(-c2noc(C(F)(F)F)n2)c(F)c1 [Compound A-68, 2-[[3-fluoro-4-[5-(trifluoromethyl)-1,2,4-oxadiazol-3-yl]phenyl]methyl]isoxazolidin-3-one]",86 to 89,≥ 80,≥ 80,≥ 80,≥ 80
"O=S1(=O)CCCN1Cc1ccc(-c2noc(C(F)(F)F)n2)cc1 [Compound B-1, 2-[[4-[5-(trifluoromethyl)-1,2,4-oxadiazol-3-yl]phenyl]methyl]-1,2-thiazolidine 1,1-dioxide]",69 to 73,≥ 80,≥ 80,≥ 80,≥ 80

# More lines, main results first:
melting point [°C],SMILES,inhibition of growth at 20 ppm [1] [%],pest or weed control at 200 ppm [2] [%],pest or weed control at 200 ppm [3] [%],pest or weed control at 200 ppm [4] [%]
151 to 153,"O=C1CCCN1c1ccc(-c2noc(C(F)(F)F)n2)cc1 [Compound C-1, 1-[4-[5-(trifluoromethyl)-1,2,4-oxadiazol-3-yl]phenyl]pyrrolidin-2-one]",≥ 80,≥ 80,≥ 80,≥ 80
74 to 77,"O=C1CCON1c1ccc(-c2noc(C(F)(F)F)n2)cc1 [Compound C-2, 2-[4-[5-(trifluoromethyl)-1,2,4-oxadiazol-3-yl]phenyl]isoxazolidin-3-one]",≥ 80,≥ 80,≥ 80,≥ 80
